Test results taken from patent publication EP2471783A1, “Novel polymorphic form of efavirenz” (Esteve Química, S.A., priority 2010, dated 2012).

Legend:
[1] = Dissolution studies in heptane (solubility curve, dissolution point by turbidity); assay type: physicochemical; conditions: for Dissolution Temperatures: in heptane, heating ramp 0.2°C/min, 10% reduction in turbidity; for solubility in heptane, compared between forms: temperature range studied 17-82°C
Description: To determine the solubility curve of a given polymorphic form, different concentrations in heptane were prepared and charged to a HEL multi-reactor, using 100 mL vessels. These reactors were equipped with 4-blade PTFE turbines, (set to 150 rpm), temperature probes and turbidity probes. Temperature was controlled by applying the same re-circulating heater-chiller unit to all vessel jackets and using individual temperature compensation by external heating plates below each vessel. Heating ramps of 0.2°C/min were applied to each vessel, and the dissolution point determined by a 10% reduction in turbidity. […] Table VI. Results for solubility in heptane

[2] = Comparative and competitive slurry experiments (mixtures of forms, followed by powder X-ray diffraction); assay type: physicochemical
Description: Mixtures of Efavirenz form I with form III or form C were prepared according to table II. The suspensions were stirred at 20°C with small PTFE coated cross-shaped magnetic stirrers and samples taken after 1, 2 and 7 days, filtered, dried at ambient temperature under vacuum for 20 minutes and analyzed by powder X-ray diffraction.

[3] = cited from earlier work
[4] = Dissolution studies in ethanol-water (volume of ethanol required for dissolution of an aqueous suspension); assay type: physicochemical; conditions: suspension in water 20 mL with DSS 0.02 g, 20°C, ethanol added at 0.2 mL/min, 50% reduction in turbidity
Description: Dissolution experiments were performed for forms I, III and C of Efavirenz. To an aqueous suspension of each form, ethanol was added and the volume recorded in order for dissolution. Efavirenz is hydrophobic and has a tendency to float in water. To improve the dispersion of efavirenz in water, a surfactant was used, namely, docusate sodium (DSS), the dioctyl ester of sodium sulfosuccinate. DSS is a widely used pharmaceutical excipient and food additive. Efavirenz, polymorphic form and quantity as indicated in the table V, was suspended in water (milliQ, 20 mL) with DSS (docusate sodium, 0.02 g) in a 100 mL vessel. This mixture was placed in an ultrasonic batch for 5 minutes to break up any agglomerates and then the vessel was transferred to an automated (HEL) reaction block equipped with pitched 4-blade turbine PTFE agitators (set to 120 rpm), turbidity probes and syringe pumps. The temperature inside the vessels was controlled by jackets connected to a re-circulating heater-chiller unit. The mixtures were agitated at 20°C and turbidity probes adjusted before addition of ethanol at a continuous rate of 0.2 mL/min via the syringe pumps. The volume of ethanol required for dissolution was taken as that required for a 50% reduction in the turbidity reading. […]

[5] = Accelerated stability conditions; assay type: physicochemical
Excerpt: Thus, in one aspect, the present invention is directed to a polymorphic form C of Efavirenz characterized by an X-ray powder diffraction pattern which comprises characteristic 2θ values at: 7.1, 7.3, 11.0, 13.8, 14.2, 14.6, 19.1, 20.9, 21.2, 24.5 and 24.9 ± 0.2 degrees 2θ.

[6] = slurry in ethanol/water, 20°C, samples after 1, 2 and 7 days

| Dissolution Temperatures ([1]; concentration 0,010 g/mL) [°C] | Dissolution Temperatures ([1]; concentration 0,040 g/mL) [°C] | Dissolution Temperatures ([1]; concentration 0,067 g/mL) [°C] | Dissolution Temperatures ([1]; concentration 0,200 g/mL) [°C] | solubility in heptane, compared between forms [1] | Dissolution Temperatures ([1]; concentration 0,180 g/mL) [°C] | stability ([5]; 25°C and 60% relative humidity) | stability ([5]; 40°C and 75% relative humidity) | conversion of form C into form I ([2]; form C in its pure form, without any contamination with form I) | SMILES | content of form I in a mixture of form I and form III [2, 6] | aqueous solubility [3] | volume of ethanol required to achieve dissolution, compared between forms [4] | content of form C in a mixture of form I and form C [2, 6] | content of form C in a mixture of form I and form C ([2]; slurry in methanol/water, 20°C, samples after 1, 2 and 7 days) |
| --- | --- | --- | --- | --- | --- | --- | --- | --- | --- | --- | --- | --- | --- | --- |
| 29 | 64 | 74 | 82 | less soluble at high temperature | – | – | – | – | O=C1Nc2ccc(Cl)cc2[C@@](C#CC2CC2)(C(F)(F)F)O1 [Form I, (4S)-6-chloro-4-(cyclopropylethynyl)-4-(trifluoromethyl)-1,4-dihydro-2H-3,1-benzoxazin-2-one] | decreases with time, and after 7 days the mixture has converted completely to form III | – | – | – | – |
| – | – | – | – | – | – | – | – | – | O=C1Nc2ccc(Cl)cc2[C@@](C#CC2CC2)(C(F)(F)F)O1 [Efavirenz, (4S)-6-chloro-4-(cyclopropylethynyl)-4-(trifluoromethyl)-1,4-dihydro-2H-3,1-benzoxazin-2-one] | – | extremely poor | – | – | – |
| 31 | 55 | 62 | – | less soluble at low temperature | 75 | – | – | – | O=C1Nc2ccc(Cl)cc2[C@@](C#CC2CC2)(C(F)(F)F)O1 [Form III, (4S)-6-chloro-4-(cyclopropylethynyl)-4-(trifluoromethyl)-1,4-dihydro-2H-3,1-benzoxazin-2-one] | – | – | – | – | – |

| SMILES | Dissolution Temperatures ([1]; concentration 0,010 g/mL) [°C] | Dissolution Temperatures ([1]; concentration 0,040 g/mL) [°C] | Dissolution Temperatures ([1]; concentration 0,067 g/mL) [°C] | Dissolution Temperatures ([1]; concentration 0,200 g/mL) [°C] | solubility in heptane, compared between forms [1] | Dissolution Temperatures ([1]; concentration 0,180 g/mL) [°C] | stability ([5]; 25°C and 60% relative humidity) | stability ([5]; 40°C and 75% relative humidity) | conversion of form C into form I ([2]; form C in its pure form, without any contamination with form I) | content of form I in a mixture of form I and form III [2, 6] | aqueous solubility [3] | volume of ethanol required to achieve dissolution, compared between forms [4] | content of form C in a mixture of form I and form C [2, 6] | content of form C in a mixture of form I and form C ([2]; slurry in methanol/water, 20°C, samples after 1, 2 and 7 days) |
| --- | --- | --- | --- | --- | --- | --- | --- | --- | --- | --- | --- | --- | --- | --- |
| O=C1Nc2ccc(Cl)cc2[C@@](C#CC2CC2)(C(F)(F)F)O1 [Form C, (4S)-6-chloro-4-(cyclopropylethynyl)-4-(trifluoromethyl)-1,4-dihydro-2H-3,1-benzoxazin-2-one] | 17 | 49 | 56 | 71 | more soluble in heptane than forms I and III | – | stable during at least three months | stable during at least three months | not observed | – | – | consistently requires less volume of ethanol than forms I and III | decreases with time, although some still remains in the mixture after 7 days | a similar trend is observed although the transformation is slower |
